# Source: patent publication US9169182B2, “Chrysophaentin analogs that inhibit FtsZ protein” (priority 2011, dated 2015)
# Assays:
# [1] = test system: Staphylococcus aureus (SA, ATCC 25923); test: Microbroth dilution assay; format: cell-based; settings: ATCC25923, microbroth dilution
# Protocol: (§1) Compounds 1-8 were tested for antimicrobial activity against Staphylococcus aureus (SA, ATCC 25923), methicillin-resistant S. aureus (MRSA, ATCC BAA-41), multidrug-resistant S. aureus (MDRSA, ATCC BAA-44), Enterococcus faecium (EF, ATCC 49032), vancomycin-resistant E. Faecium (VRE, ATCC 700221), and Bacillus subtilis (ATCC 49343) using a modified disk diffusion assay and microbroth liquid dilution assays. For disk diffusion assays, agar plates seeded with suspensions of bacteria were prepared by adding 500 μL of a 24 h culture of bacteria to 100 mL of autoclaved Mueller Hinton II agar and cooled to 55° C. Seeded liquid agar (10 mL) was transferred immediately to square Petri dishes and allowed to cool for 1 h. Control drugs used for each microorganism included kanamycin (50 μg) for S. aureus, and nitrofurantoin (25 μg) for MRSA. Following incubation at 37° C. for 18 h, zones of inhibition were measured. MICso values for compounds 1 and 4-8 were determined using a microbroth dilution assay outlined in the Clinical and Laboratory Standards Institute methods for susceptibility tests for bacteria that grow aerobically. Briefly, single bacterial colonies were used to inoculate 4 mL of Trypticase Soy broth (BD) for overnight growth and inoculum for each were diluted to 5×10^5 CFU/mL using the 0.5 McFarland standard. In a 96 well plate (Costar, round bottom), control antibiotics (oxacillin for SA and MRSA, vancomycin for EF and VRE, chloramphenicol for B. subtilis) or natural product inhibitors were added to Mueller Hinton II broth (for S. aureus, MRSA, and B. subtilis) or 10% brain heart infusion broth (for E. faecium and VRE) in the first column of the well plates, and serially diluted across the plate, reserving wells for a positive growth control (no treatment). 10 μL of diluted bacteria were added to all wells with the exception of those kept for broth blanks (MHII or brain heart infusion broth only). Plates were incubated at 37° C. overnight and read at absorbance 600 nm on a Molecular Devices plate reader. Growth curves were plotted and ICso values obtained using Kalidagraph software.
# (§2) Compounds J23 and J24 were tested for antimicrobial activity against Bacillus subtilis (BS, ATCC 49343), Staphylococcus aureus (SA, ATCC 25923), methicillin-resistant S. aureus (MRSA, ATCC BAA-41), multidrug-resistant S. aureus (MDRSA, ATCC BAA-44), Escherichia coli (EC, ATCC 8739), envelope-deficient E. coli (envA-EC; permeable (envA-) BL21(DE3)pLysS E. coli [constructed using standard P1 transduction methodology, utilizing a Tn10transposon linked to the envA1 gene]; Wang et al., J. Biol. Chem. 2003, 278(45):44424-44428), a clinical isolate of S. aureus (UAMS-1; clinical osteomyelitis isolate; Olson et al., PLoS Pathogens 2011, 7(2):e1001287, www.plospathogens.org), and a clinical isolate of MRSA (USA300; the strain USA300-0114 is the predominant cause of U.S. community-associated methicillin resistant S. aureus infections). MIC50 values were determined using a microbroth dilution assay as described in Example 2. E. coli was grown in Mueller Hinton II broth.
# [2] = test system: methicillin-resistant S. aureus (MRSA, ATCC BAA-41); test: Microbroth dilution assay; format: cell-based; settings: Staphylococcus aureus
# Protocol: as §1, §2
# [3] = test system: clinical isolate of MRSA (USA300); test: Microbroth dilution assay; format: cell-based; settings: Staphylococcus aureus
# Protocol: as §1, §2
# [4] = test system: envelope-deficient E. coli (envA-EC); test: Microbroth dilution assay; format: cell-based; settings: Escherichia coli, read-out: MIC50 values in μM envA-EC
# Protocol: as §1, §2
# [5] = test system: clinical isolate of S. aureus (UAMS-1); test: Microbroth dilution assay; format: cell-based; settings: Staphylococcus aureus
# Protocol: as §1, §2
# [6] = test system: multidrug-resistant S. aureus (MDRSA, ATCC BAA-44); test: Microbroth dilution assay; format: cell-based; settings: Staphylococcus aureus, ATCCBAA44, read-out: MIC50 values in μM MDRSA
# Protocol: as §1, §2
# [7] = test system: Bacillus subtilis (ATCC 49343); test: Microbroth dilution assay; format: cell-based; settings: ATCC49343, read-out: MIC50 values in μM BS
# Protocol: as §1, §2
# [8] = test system: Escherichia coli (EC, ATCC 8739); test: Microbroth dilution assay; format: cell-based; settings: ATCC8739
# Protocol: as §1, §2
# Sa-FtsZ = Sa-FtsZ (Staphylococcus aureus, UniProt P0A031); format: biochemical; settings: GTPase assay; read-out: FtsZ in vitro IC50 μM Sa-FtsZ
# Protocol: (§3) Solutions were incubated at room temperature for 5 min, followed by addition of 0.25 mM GTP. At the end of a 20-min incubation period, enzyme activity was quenched by addition of 50 μL Malachite Green solution and the wells read at A^625 on an absorbance plate reader.
# recombinant E. coli FtsZ = recombinant E. coli FtsZ (Escherichia coli (strain K12), UniProt P0A9A6); test: FtsZ GTPase assay (malachite green); settings: read-out: FtsZ in vitro IC50 μM Ec-FtsZ
# Chain of recombinant E. coli FtsZ (P0A9A6 whole entry, looked up): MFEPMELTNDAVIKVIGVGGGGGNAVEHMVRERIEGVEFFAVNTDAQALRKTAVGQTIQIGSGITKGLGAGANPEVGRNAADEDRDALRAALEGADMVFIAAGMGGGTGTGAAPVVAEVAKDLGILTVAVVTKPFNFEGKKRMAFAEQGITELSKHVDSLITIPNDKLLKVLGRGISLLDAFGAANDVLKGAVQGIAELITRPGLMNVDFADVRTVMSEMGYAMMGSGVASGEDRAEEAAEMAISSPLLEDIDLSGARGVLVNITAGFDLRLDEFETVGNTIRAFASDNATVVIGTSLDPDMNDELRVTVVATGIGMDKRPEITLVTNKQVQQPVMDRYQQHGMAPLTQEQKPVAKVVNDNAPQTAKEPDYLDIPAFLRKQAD
# Protocol: as §3
SMILES,MIC50 [1],MIC50 [2],MIC50 [3],MIC50 [4],MIC50 [5],MIC50 [6],MIC50 [7],MIC50 [8],IC50 (Sa-FtsZ),IC50 (recombinant E. coli FtsZ)
"COc1cc(C/C=C(/Cl)Cc2cc(O)cc(O)c2)c(OC)cc1Cl [Compound J23, (E)-5-(2-chloro-4-(4-chloro-2,5-dimethoxyphenyl)but-2-enyl)benzene-1,3-diol]",12 µM,12 µM,6 µM,120 µM,7.4 µM,12 µM,19 µM,> 270 µM,44 ± 12 µM,36 ± 7 µM
"Oc1cc(O)cc(C/C(Cl)=C\Cc2cc(O)c(Cl)cc2O)c1 [Compound J24, (E)-5-(2-chloro-4-(4-chloro-2,5-dihydroxyphenyl)but-2-enyl)-benzene-1,3-diol]",18 µM,22 µM,,72 µM,,26 µM,11 µM,> 290 µM,88 ± 11 µM,160 ± 30 µM
